The text below walks through data of patent publication US20220348870A1, “MATERIALS AND METHODS FOR MODIFYING THE ACTIVITY OF T CELLS” (Regents of the University of Minnesota, priority 2016, published 2022).

The test system of series [1] is human tTreg. The series is described as follows: Foxp3 expression in expanded tTreg by flow cytometry. The class given is cell-based. Conditions: for Foxp3 protein expression at the population level (% Foxp3+CD127−): 50 nM RNA, antagomir vs scrambled P<0.05. Here is the method:
(§1) tTreg and CD4+ T-cell cultures, generated as described herein, were frozen on days 14 and 7, respectively. Frozen cells were thawed and re-stimulated with anti-CD3/CD28 mAb-coated Dynabeads (Life Technologies, Carlsbad, Calif.) at 1:3 (cell to bead) ratios in the presence of recombinant IL-2. After 6 days, cultures were washed, re-suspended at 1×10^6 cells/ml, and nanoparticle-encapsulated RNA (50 nM; Scramble/Antagomir, Table 4: EXIQON, Woburn, Mass.) or TRAF6 inhibitor (8 μM, Darmstadt, Germany) or NF-kB inhibitor (PS-1145, 3 μM or 6 μM, Millennium Pharmaceuticals, Cambridge, Mass.) were added. DMSO were vehicles and used as controls. Cells were cultured another 2 days without further manipulation, and were harvested and assayed as listed. For some experiments, tTreg were kept in culture longer (as indicated) without further antagomir addition.
(§2) Human-specific antibodies used for flow cytometry included: CD4 (RPA-T4), CD8 (RPA-T8), CD25 (M-A251), CD45RA (HI100), IFN-gamma, IL-17a, annexin V (PE), 7-AAD (FITC) were purchased from BD Pharmingen, while Foxp3 (clone 249D) was obtained from BioLegend and Ki67 from eBioscience. For cytokine analysis, cells were pre-treated by PMA, ionomycin and brefeldin A for 6 hours and then stained by different cytokine antibodies. The annexin V (PE)/7-AAD (FITC) were applied to assess the apoptosis of tTreg. Acquisition was performed using a LSRII (BD Bioscience) and data were analyzed using FlowJo software (TreeStar) or IDEA (Admin). Nuclear localization of NF-kB was quantitated using an imaging flow cytometer (Imagestream, Amnis Corp; Seattle, Wash.) by intracellularly staining tTreg with anti-NF-kB (vendor) and, after washing, incubating with DRAQ5 for 15 minutes at 10 μM final concentration.
(In general: Flow cytometry measures light scatter and fluorescence of single cells or particles in a stream.)

Series [2] deals with human tTreg. The series is described as follows: CFSE in vitro suppression assay (anti-CD3-mediated CD8+ T cell proliferation). The class given is cell-based. The method, then: The in vitro-suppressive capacity of expanded tTregs was assessed with a carboxy fluorescein succinimidyl ester (CFSE) inhibition assay as previously published (Hippen et al., Blood, 2008, 112(7):2847-57). Briefly, PBMNCs were purified, labeled with CFSE (Invitrogen), and stimulated with anti-CD3 mAb-coated beads (Dynal) ±cultured tTreg (1:2 to 1:32 tTregs/PBMNCs). On day 4, cells were stained with antibodies to CD4 and CD8, and suppression was determined from the Division Index (FlowJo, TreeStar). nTregs suppressed CD4 and CD8 T cell responses equivalently and only CD8 data are presented.

A further series has as its system TRAF6. The series is described as follows: TRAF6 mRNA (RT-PCR) and protein (flow cytometry) expression in tTreg. The class given is cell-based, human. The conditions noted are these: expanded tTregs; for TRAF6 mRNA expression: RT-PCR. The method, then:
as §1
as §2, with “For cytokine analysis, cells were pre-treated by PMA, ionomycin and brefeldin A for 6 hours and then stained by different cytokine antibodies. The annexin V (PE)/7-AAD (FITC) were applied to assess the apoptosis of tTreg.” left out
(§3) RNA was extracted from cell pellets using RNeasy Mini Kit with on-column DNase digestion (Qiagen; Hilden, Germany). cDNA synthesis was performed as described in the Expression Analysis Technical Manual (Affymetrix; Santa Clara, Calif.). GAPDH was used as control gene and related gene expression (Bcl-2, Mcl-1, Bcl-xL, BID and BAX; all from IDT, Coralville, Iowa), was analyzed on an Applied Biosystems 7500 Real-Time PCR System using Taqman Universal PCR Master Mix #4304437 and Assay on Demand primer/probe kits (Applied Biosystems; Waltham, Mass.). […]

In another series the test system is miR-146b-5p. Kind of series: miR-146b-5p knockdown in expanded tTreg by qRT-PCR. It is filed as cell-based, human. The method, then: as §1, with “For some experiments, tTreg were kept in culture longer (as indicated) without further antagomir addition.” left out
as §3

For series [3], the system named is human tTreg. The series is described as follows: tTreg expansion, viability (annexin V/7-AAD) and Ki-67 staining. The class given is cell-based. The method, then: as §1, §2
Series [4] deals with human tTreg. Kind of series: Intracellular IFN-gamma assay after PMA/ionomycin re-stimulation. The class given is cell-based. The conditions noted are these: final 2 days treatment. The method, then:
as §2

A further series deals with control CD4 T-cells. The series is described as follows: Foxp3 expression and suppressive function of control CD4 T-cells. It is filed as cell-based, human. Conditions: antagomir for final 2 days. Here is the method:
as §1, with “Cells were cultured another 2 days without further manipulation, and were harvested and assayed as listed. For some experiments, tTreg were kept in culture longer (as indicated) without further antagomir addition.” left out
as §2, with “For cytokine analysis, cells were pre-treated by PMA, ionomycin and brefeldin A for 6 hours and then stained by different cytokine antibodies. The annexin V (PE)/7-AAD (FITC) were applied to assess the apoptosis of tTreg.” left out, “concentration. […]” for “concentration.”

The subject of a further series is NF-kB. The series is described as follows: NF-kB nuclear localization by imaging flow cytometry. It is filed as cell-based, human. The conditions noted are these: tTreg, 2 days, vs untreated or scramble-treated. The method, then:
as §2
TRAF6 is critical for TCR-mediated activation of NF-kB, and acts by ubiquitinylating TAK1, leading to activation of IKK and destruction of IkB, which allows NF-kB to translocate to the nucleus. To determine whether miR-146 antagomir enhanced NF-kB nuclear translocation, in vitro expanded tTreg were left untreated or treated for 2 days with scrambled RNA or miR-146b-5p antagomir, stained for CD4, NF-kB and DRAQ5 (a nuclear marker) and analyzed using imaging flow cytometry. […]

For series [5], the system named is human tTreg. The series is described as follows: qRT-PCR of NF-kB-responsive, anti- and pro-apoptotic genes in tTreg. The class given is cell-based. Here is the method:
RNA was extracted from cell pellets using RNeasy Mini Kit with on-column DNase digestion (Qiagen; Hilden, Germany). cDNA synthesis was performed as described in the Expression Analysis Technical Manual (Affymetrix; Santa Clara, Calif.). GAPDH was used as control gene and related gene expression (Bcl-2, Mcl-1, Bcl-xL, BID and BAX; all from IDT, Coralville, Iowa), was analyzed on an Applied Biosystems 7500 Real-Time PCR System using Taqman Universal PCR Master Mix #4304437 and Assay on Demand primer/probe kits (Applied Biosystems; Waltham, Mass.). For TLDA assay, TLDA v2.0 was performed on the 7900HT real-time PCR system (Applied Biosystems) according to the manufacturer's protocol. Average delta CT was acquired from the results for further analysis. PCR cycling conditions were performed as follows: 95° C. for 15 s and 60° C. for 1 min, 40 cycles and then 95° C. for 10 min. To normalize RNA input, Human RNU44 (Table 4) small RNA was used as an internal control.
In general terms: Quantitative PCR measures a nucleic acid by following its amplification.

Regarding `O=C(Nc1cc(Cl)cc2c1[nH]c1cnccc12)c1cccnc1` [PS1145, reference compound], in the series with human tTreg [1] (tTreg, NF-kB inhibitor 3 μM or 6 μM, final 2 days, vs DMSO), the Foxp3 expression entry is recorded as “decreased Foxp3 expression in a dose-dependent manner”. For the same molecule, the “in vitro suppressive function” value in the series on human tTreg [2] (tTreg, NF-kB inhibitor, final 2 days) is “significantly decreased in vitro suppressive function”.
Take “Scramble: nanoparticle-encapsulated scrambled control RNA, TAA CAC GTC TAT ACG CCC A (SEQ ID NO: 1) (TAACACGTCTATACGCCCA; nanoparticle-encapsulated, chemistry not given here) [reference compound]”: in the series on human tTreg [1] (tTreg, final 2 days), the “Foxp3 protein expression at the population level (% Foxp3+CD127−)” value is 73.1%±4.6%. Besides, the “TRAF6 mRNA expression” value in the series with TRAF6 was “no effect was observed”.
Consider “miR-146b-5p antagomir: nanoparticle-encapsulated antagomir RNA (EXIQON), AGCCTATGGAATTCAGTTCTC (SEQ ID NO: 2) (AGCCTATGGAATTCAGTTCTC; nanoparticle-encapsulated Exiqon antagomir, chemistry not given here)”, for which the miR-146b expression reduced with miR-146b-5p (day 8 after a single antagomir treatment (not shown)) was found to be 70%. The miR-146b-5p knockdown efficiency with miR-146b-5p (tTreg, nanoparticle-encapsulated antagomir 50 nM, 2 days, qRT-PCR) was above 95%. Also, in the series on human tTreg [1] (day 8 after single treatment), the Foxp3 expression result is reported as “maintained their higher Foxp3 expression”. In addition, the “Foxp3 protein expression at the population level (% Foxp3+CD127−)” value in the series on human tTreg [1] (tTreg, final 2 days) is 85.5%±3.5%. The “Foxp3 protein expression at per-cell level” value in the series with human tTreg [1] (tTreg, 2 days, compared to scrambled group) is given as “increased Foxp3 protein expression”. Further, the suppressive function entry in the series with human tTreg [2] (day 8 after single treatment) was “maintained their higher Foxp3 expression and suppressive function”. In addition, the “increase in efficacy of tTreg suppressive function” value in the series with human tTreg [2] (tTreg:PBMC 1:8 to 1:32, antagomir-treated at 1:16 as suppressive as scramble-treated at 1:8) was around 2 fold. Further, in the series on human tTreg [3] (2 days treatment, annexin V/7-AAD), the tTreg viability entry is reported as “increased viability”. The “Ki67 MFI level” value with human tTreg [3] (2 days treatment, n=5) was “higher relative Ki67 MFI level”. In the series on human tTreg [3] (day 8 post single treatment, vs untreated or scrambled RNA), the tTreg expansion entry was “expanded significantly more”. The tTreg expansion entry with human tTreg [3] (initial 2 day treatment period) is listed as “no significant difference in expansion”. In addition, the “IFN-gamma expression in expanded tTregs” value with human tTreg [4] is reported as “expression was not affected”. Further, in the series with control CD4 T-cells, the “FoxP3 expression in control CD4 T-cells” value is on record as “no effect on FoxP3 expression” and the “suppressive function of control CD4 T-cells” value is reported as “no effect on FoxP3 expression or suppressive function”. The “TRAF6 mRNA expression” value with TRAF6 was “significantly higher TRAF6 mRNA expression”. Further, in the series with TRAF6 (flow cytometry, vs untreated or scramble-treated), the TRAF6 protein expression result is reported as “significantly enhanced TRAF6 protein expression”. In the series with NF-kB, the “NF-kB/DRAQ5 similarity score (nuclear localization)” value is listed as “significantly higher similarity scores”. For the same molecule, in the series on human tTreg [5] (anti-apoptotic gene, tTreg), the Bcl-xL expression result is recorded as “increased expression” and the Mcl-1 expression entry is reported as “increased expression”. In the series on human tTreg [5] (over untreated or scramble-treated tTreg), this molecule showed a c-myc expression increase above 3 fold. In the series with human tTreg [5] (pro-apoptotic gene, tTreg), the BAX expression result is recorded as “decreased expression” and the BID expression result is “decreased expression”.
